According to patent US20230172930A1, “USE OF COMPLEMENT FACTOR D INHIBITORS ALONE OR IN COMBINATION WITH ANTI-C5 ANTIBODIES FOR TREATMENT OF PAROXYSMAL NOCTURNAL HEMOGLOBINURIA” (Alexion Pharmaceuticals, Inc., priority 2020, published 2023):
Several values for one entry are separate records, joined by “and”; a condition that tells them apart may be missing. Identical values can stand only once.

Key:
[1] = system: PNH patients with an inadequate response to eculizumab; experiment: Phase 2 study: RBC transfusion needs (events, units, annualized rates); type: in vivo, human
Experimental: Transfusion frequency and amount were evaluated via annualized rates and units, respectively. The average intensive rate of transfusion frequency before treatment was calculated by summing the number of transfusion events in the 52 weeks prior to Screening plus days from Screening to Day 1 of dosing from 10 patients and dividing this sum by the patients' total exposure times. The average intensive rate in the 24 weeks post-treatment was calculated with the same method. The ratio of these two intensive rates (post vs. pre) was used to quantify the treatment effect. Standard statistical analysis for comparing the two intensity rates (post- vs pre-treatment) was conducted.

[2] = system: PNH erythrocytes; experiment: Phase 2 study: PNH clone size and C3 fragment deposition on erythrocytes by flow cytometry (anti-human C3d antibody); type: in vivo
Experimental: (§1) FIGS. 4A-4D are graphs depicting the effect on complement biomarkers and PNH clone size. […] Arithmetic mean and standard derivation (SD) were shown for all but the clone size of C3d^+ PNH erythrocytes where geometric mean was used, and the range was shown at each time point. NHS, normal human serum; BL, baseline; LLN, lower limit normal; ULN, upper limit normal.
(§2) Pharmacodynamics were determined by measuring serum AP activity with AP hemolysis assay. Serum CP activity, Plasma Bb concentration, serum FD, and C3 concentrations were also monitored. Complement tests were conducted by a central lab using commercial kits, with the exception of AP hemolysis assay which was conducted internally for exploratory purposes. At each AP hemolysis run, a single normal human serum sample was included in addition to the patient serum samples so hemolysis values of individual patient serum samples could be standardized to the hemolysis value of the normal human serum sample. Finally, PNH clone size and C3 fragment deposition on erythrocytes was measured using flow cytometry with FITC conjugated anti-human C3d antibody.

[3] = as above; type: in vivo
Experimental: as §1, §2

[4] = system: PNH patients with an inadequate response to eculizumab; experiment: Phase 2 study: FACIT-Fatigue Scale V4 (score range 0-52, higher = improvement); type: in vivo, human; conditions: for FACIT-Fatigue, mean: N=11
From the text: This study utilized the validated quality of life instrument FACIT-Fatigue Scale (Version 4). This self-reporting instrument measures the severity of fatigue being experienced on a scale of 0 to 52 where a score of less than 30 represents severe fatigue and higher scores indicate improvement in fatigue. A 3-point change is clinically meaningful on this scale. A 10-point or greater change is highly significant on this scale. […] This constitutes an upper limit of the disclosure.

[5] = pre-danicopan: 52-week history plus screening to Day 1, ten patients on eculizumab
[6] = N=11, Baseline, before danicopan, on eculizumab
[7] = Patient A, Baseline, before danicopan, on eculizumab 900 mg q14d
[8] = Patient A, Week 12, danicopan 150 mg TID + eculizumab 900 mg q14d
[9] = Patient A, Week 24, danicopan 150 mg TID + eculizumab 900 mg q14d
[10] = Patient B, Baseline, before danicopan, on eculizumab 1200 mg q14d
[11] = Patient B, Week 12, danicopan 100 mg TID + eculizumab 900 mg q14d
[12] = Patient B, Week 24, danicopan 100 mg TID + eculizumab 900 mg q14d
[13] = Patient C, Baseline, before danicopan, on eculizumab 900 mg q14d
[14] = Patient C, Week 12, danicopan 150 mg TID + eculizumab 900 mg q14d
[15] = Patient C, Week 24, danicopan 150 mg TID + eculizumab 900 mg q14d
[16] = Patient D, Baseline, before danicopan, on eculizumab 900 mg q14d
[17] = Patient D, Week 12, danicopan 150 mg TID + eculizumab 900 mg q14d
[18] = Patient D, Week 24, danicopan 150 mg TID + eculizumab 900 mg q14d
[19] = Patient E, Baseline, before danicopan, on eculizumab 1200 mg q14d
[20] = Patient E, Week 12, danicopan 150 mg TID + eculizumab 1200 mg q14d
[21] = Patient E, Week 24, danicopan 150 mg TID + eculizumab 1200 mg q14d
[22] = Patient F, Baseline, before danicopan, on eculizumab 900 mg q14d
[23] = Patient F, Week 12, danicopan 150 mg TID + eculizumab 900 mg q14d
[24] = Patient F, Week 24, danicopan 150 mg TID + eculizumab 900 mg q14d
[25] = Patient G, Baseline, before danicopan, on eculizumab 1500 mg q14d
[26] = Patient G, Week 12, danicopan 100 mg TID + eculizumab 1500 mg q14d
[27] = Patient G, Week 24, danicopan 100 mg TID + eculizumab 1500 mg q14d
[28] = Patient H, Baseline, before danicopan, on eculizumab 900 mg q14d
[29] = Patient H, Week 12, danicopan 200 mg TID + eculizumab 900 mg q14d
[30] = Patient H, Week 24, danicopan 200 mg TID + eculizumab 900 mg q14d
[31] = Patient I, Baseline, before danicopan, on eculizumab 900 mg q14d
[32] = Patient I, Week 12, danicopan 100 mg TID + eculizumab 900 mg q14d
[33] = Patient I, Week 24, danicopan 200 mg TID + eculizumab 900 mg q14d
[34] = Patient J, Baseline, before danicopan, on eculizumab 1200 mg q14d
[35] = Patient J, Week 12, danicopan 100 mg TID + eculizumab 1200 mg q14d
[36] = Patient J, Week 24, danicopan 200 mg TID + eculizumab 1200 mg q14d
[37] = Patient K, Baseline, before danicopan, on eculizumab 900 mg q14d
[38] = Patient K, Week 12, danicopan 100 mg TID + eculizumab 900 mg q14d
[39] = Patient K, Week 24, danicopan 150 mg TID + eculizumab 900 mg q14d

CC(=O)c1nn(CC(=O)N2C[C@H](F)C[C@H]2C(=O)Nc2cccc(Br)n2)c2ccc(-c3cnc(C)nc3)cc12 [Danicopan, danicopan]
reduction in transfusion frequency ([1]; post- vs. pre-danicopan): 95.8% | average annualized rate of transfusion events ([1]; post-danicopan (24 weeks)): 0.217 | average annualized transfusion units ([1]; post-danicopan (24 weeks)): 0.43 | average annualized rate of transfusion events ([1]; pre-danicopan): 5.234 | average annualized transfusion units ([1]; pre-danicopan): 9.27 | transfusions administered [1, 5]: 57 | units of packed red blood cells (PRBC) [1, 5]: 101 units | units transfused ([1]; since commencing danicopan through week 24, ten patients): 2 units | PNH RBC clone size, mean ([2]; N=7, Week 24, danicopan 100-200 mg TID + eculizumab): 84±22.1% and 84% | C3d^+ PNHRBCs, geometric mean [2, 6]: 22% and 22.2% | PNH RBC clone size, mean [2, 6]: 54±24.9% and 54% | C3d^+ PNHRBCs, geometric mean ([2]; N=11, Week 24, danicopan 100-200 mg TID + eculizumab): 6.7% and 6.68% | C3d^+ PNHRBCs [2, 7]: 6.30% | PNH RBC clone size [2, 7]: 41% | PNH RBC clone size [2, 8]: 83% | C3d^+ PNHRBCs [2, 9]: 2.20% | C3d^+ PNHRBCs [2, 10]: 8.20% | PNH RBC clone size [2, 10]: 80% | PNH RBC clone size [2, 11]: 89% | C3d^+ PNHRBCs [2, 12]: 1.00% | C3d^+ PNHRBCs [2, 13]: 17.5% | PNH RBC clone size [2, 13]: 22% | C3d^+ PNHRBCs [2, 14]: 18.6% | PNH RBC clone size [2, 14]: 59% | C3d^+ PNHRBCs [2, 15]: 16.7% | PNH RBC clone size [2, 15]: 51% | C3d^+ PNHRBCs [2, 16]: 15.9% | PNH RBC clone size [2, 16]: 52% | C3d^+ PNHRBCs [2, 17]: 0.200% | PNH RBC clone size [2, 17]: 99% | C3d^+ PNHRBCs [2, 18]: 5.20% | PNH RBC clone size [2, 18]: 100% | C3d^+ PNHRBCs [2, 19]: 21.3% | PNH RBC clone size [2, 19]: 21% | C3d^+ PNHRBCs [2, 20]: 11.8% | PNH RBC clone size [2, 20]: 37% | C3d^+ PNHRBCs [2, 21]: 4.90% | PNH RBC clone size [2, 21]: 53% | C3d^+ PNHRBCs [2, 22]: 71.0% | PNH RBC clone size [2, 22]: 95% | C3d^+ PNHRBCs [2, 23]: 48.0% | PNH RBC clone size [2, 23]: 99% | C3d^+ PNHRBCs [2, 24]: 53.4% | PNH RBC clone size [2, 24]: 98% | C3d^+ PNHRBCs [2, 25]: 80.0% | PNH RBC clone size [2, 25]: 62.8% | C3d^+ PNHRBCs [2, 26]: 29.4% | PNH RBC clone size [2, 26]: 90.4% | C3d^+ PNHRBCs [2, 27]: 57.0% | PNH RBC clone size [2, 27]: 96.0% | C3d^+ PNHRBCs [2, 28]: 38.8% | PNH RBC clone size [2, 28]: 19% | C3d^+ PNHRBCs [2, 29]: 14.9% | PNH RBC clone size [2, 29]: 71% | C3d^+ PNHRBCs [2, 30]: 22.8% | C3d^+ PNHRBCs [2, 31]: 13.6% | PNH RBC clone size [2, 31]: 73% | C3d^+ PNHRBCs [2, 32]: 0.400% | PNH RBC clone size [2, 32]: 95% | C3d^+ PNHRBCs [2, 33]: 0.100% | C3d^+ PNHRBCs [2, 34]: 34.3% | PNH RBC clone size [2, 34]: 60% | C3d^+ PNHRBCs [2, 35]: 59.5% | PNH RBC clone size [2, 35]: 99% | C3d^+ PNHRBCs [2, 36]: 28.7% | PNH RBC clone size [2, 36]: 99% | C3d^+ PNHRBCs [2, 37]: 20.2% | PNH RBC clone size [2, 37]: 55% | C3d^+ PNHRBCs [2, 38]: 44.2% | PNH RBC clone size [2, 38]: 84% | C3d^+ PNHRBCs [2, 39]: 6.30% | PNH RBC clone size [2, 39]: 91% | clone size of PNH granulocytes, mean±SD ([3]; Week 24): 95±7.2% | clone size of PNH granulocytes, mean±SD ([3]; baseline): 92±9.2% | FACIT-Fatigue, mean ([4]; Baseline, before danicopan, on eculizumab): 34 | FACIT-Fatigue, mean ([4]; Week 24, danicopan 100-200 mg TID + eculizumab): 45 | FACIT-Fatigue [4, 7]: 33 | FACIT-Fatigue [4, 8]: 48 | FACIT-Fatigue [4, 9]: 52 | FACIT-Fatigue [4, 10]: 45 | FACIT-Fatigue [4, 11]: 49 | FACIT-Fatigue [4, 12]: 48 | FACIT-Fatigue [4, 13]: 17 | FACIT-Fatigue [4, 14]: 36 | FACIT-Fatigue [4, 15]: 26 | FACIT-Fatigue [4, 16]: 18 | FACIT-Fatigue [4, 17]: 41 | FACIT-Fatigue [4, 18]: 41 | FACIT-Fatigue [4, 19]: 42 | FACIT-Fatigue [4, 20]: 25 | FACIT-Fatigue [4, 21]: 38 | FACIT-Fatigue score ([4]; Patient F, Baseline): 9 points | FACIT-Fatigue improvement ([4]; Patient F, Baseline to Week 24): 43 point | FACIT-Fatigue [4, 22]: 9 | FACIT-Fatigue [4, 23]: 48 | FACIT-Fatigue score ([4]; Patient F, Week 24): 52 points | FACIT-Fatigue [4, 24]: 52 | FACIT-Fatigue [4, 25]: 28 | FACIT-Fatigue [4, 26]: 44 | FACIT-Fatigue [4, 27]: 38 | FACIT-Fatigue [4, 28]: 47 | FACIT-Fatigue [4, 29]: 49 | FACIT-Fatigue [4, 30]: 49 | FACIT-Fatigue [4, 31]: 48 | FACIT-Fatigue [4, 32]: 50 | FACIT-Fatigue [4, 33]: 49 | FACIT-Fatigue [4, 34]: 49 | FACIT-Fatigue [4, 35]: 51 | FACIT-Fatigue [4, 36]: 51 | FACIT-Fatigue [4, 37]: 33 | FACIT-Fatigue [4, 38]: 46 | FACIT-Fatigue [4, 39]: 50 | mean increase in FACIT-Fatigue score ([4]; at 24 Weeks relative to Baseline on eculizumab): 11 points
